This note sets out measurements from patent publication US9371304B2, “Compound separated from monascus-fermented rice,the preparation method and uses thereof” (Beijing Peking University WBL Biotech Co. Ltd, priority 2011, dated 2016).

This assay deals with T1, HMG-CoA reductase (microsomes of rat liver) (Rattus norvegicus, UniProt P51639).
T1 construct: from tissue; host or cells: rat liver microsomes
T1 sequence (P51639 1-887): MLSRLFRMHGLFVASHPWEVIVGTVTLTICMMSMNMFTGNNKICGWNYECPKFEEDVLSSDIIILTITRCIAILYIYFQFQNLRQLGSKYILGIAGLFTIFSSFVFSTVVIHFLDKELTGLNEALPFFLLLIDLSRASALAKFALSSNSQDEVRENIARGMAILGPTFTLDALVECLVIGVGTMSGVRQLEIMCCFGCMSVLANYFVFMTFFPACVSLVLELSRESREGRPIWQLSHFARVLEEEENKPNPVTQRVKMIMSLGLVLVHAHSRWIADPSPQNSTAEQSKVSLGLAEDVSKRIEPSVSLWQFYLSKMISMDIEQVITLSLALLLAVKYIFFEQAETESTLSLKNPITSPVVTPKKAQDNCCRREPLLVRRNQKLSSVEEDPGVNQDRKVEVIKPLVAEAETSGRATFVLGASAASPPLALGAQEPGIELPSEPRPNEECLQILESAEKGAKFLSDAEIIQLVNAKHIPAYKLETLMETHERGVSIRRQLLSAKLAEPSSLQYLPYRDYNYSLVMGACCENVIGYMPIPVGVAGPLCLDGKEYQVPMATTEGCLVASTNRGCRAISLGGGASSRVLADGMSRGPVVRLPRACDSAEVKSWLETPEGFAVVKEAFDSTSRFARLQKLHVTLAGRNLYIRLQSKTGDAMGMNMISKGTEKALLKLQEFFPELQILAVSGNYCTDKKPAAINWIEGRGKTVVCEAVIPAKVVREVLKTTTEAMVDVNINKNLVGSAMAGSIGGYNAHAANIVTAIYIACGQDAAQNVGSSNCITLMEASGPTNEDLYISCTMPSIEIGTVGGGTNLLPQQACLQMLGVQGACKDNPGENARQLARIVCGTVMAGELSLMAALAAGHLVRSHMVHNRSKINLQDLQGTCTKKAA
Description: Test of inhibiting activity of HMG-CoA reductase (rate of decline of OD340). It counts as biochemical. Conditions: for Slope (rate of decline of OD340 within 5 min): blank control slope 9.971. The procedure: 1. Experimental Materials
The compound of Formula II prepared according to Example 1.
monacolin L (purchased or prepared according to the method of the contents of the present invention)
Standard Sample of Lovastatin (Purchased from Sigma)
Microsomes of rat liver (HMG-CoA reductase) were purchased, or prepared according to the following method: liver of a male rat was taken out, washed with KESD buffering solution, then centrifuged at 1,200 g for 15 min, the supernatant was taken out, and then centrifuged at 105,000 g for 90 min twice, and a centrifugation precipitate was collected. The centrifugation precipitate was added with 8.3% glycerol, heated with 37° C. bath for 1 h. The microsomes of rat liver were purified with saturated ammonium sulfate and the 33-50% purified fraction was collected. The obtained microsomes of rat liver were stored in refrigerator at −80° C.
Potassium chloride, potassium dihydrogen phosphate, ethylene diamine tetraacetic acid, dithiothreitol (all purchased from Beijing Chemical Reagent Co., Ltd.)
[…] (purchased from Merck) 3-hydroxy-3-methylglutaryl coenzyme A (HMG-CoA) and cremophore EL (purchased from Sigma).
The compound as prepared according to Example 1 was dissolved with 50% cremophore EL ethanol solution, and the concentration was 2 mg/mL; the total volume of the system was determined and it was 250 μL, and the concentration of each component was: potassium chloride 200 mM, potassium dihydrogen phosphate 160 mM, ethylene diamine tetraacetic acid 4 mM, dithiothreitol 10 mM, concentrations of two substrates, nicotinamide adenine dinucleotide and 3-hydroxy-3-methylglutaryl coenzyme A, 200 μM and 50 μM separately, pH6.8, addition of enzyme 30 μL, enzyme inhibitor 5 μL, blank control group 5 μL (solvent for dissolving sample). The dynamic change of OD340 was detected with Versamax ELIASA at 37° C. The rate of decline (represented with slope value) of OD340 within 5 min was used to evaluate the activity of HMG-CoA reductase, and then to evaluate the activity of enzyme inhibitor.

As to `CC1C=C2C=CC(C)C(CCC3CC(O)CC(=O)O3)C2CC1` (stereo not shown) [monacolin L], the “Slope (rate of decline of OD340 within 5 min)” value (“Slope” below) (final concentration 30 μg/mL, 37° C., pH6.8) amounted to 7.279. For the setting “pH 6.8, final concentration 30 μg/mL, 37° C., pH6.8”, this compound had an inhibition at 30 µg/mL of 27%.

As to `CC1C=C2C=CC(C)C(CCC3CC=CC(=O)O3)C2CC1` (stereo not shown) [6-(2-(2,6-dimethyl-1,2,6,7,8,8a-hexahydronaphthalen-1-yl)ethyl)-5,6-dihydropyran-2-one], the “activity for inhibiting HMG-CoA reductase (in words)” value (conclusion drawn from Table 2) is “effective activity”. Also, for the setting “final concentration 40 μg/mL, 37° C., pH6.8”, the “Slope” value was determined as 7.344. Besides, testing at 40 µg/mL (pH 6.8, final concentration 40 μg/mL, 37° C., pH6.8) gave an inhibition of 26.3%.

For the compound `CC[C@H](C)C(=O)O[C@H]1C[C@@H](C)C=C2C=C[C@H](C)[C@H](CC[C@@H]3C[C@@H](O)CC(=O)O3)[C@H]21` [Lovastatin], the “Slope” value (final concentration 34 μg/mL, 37° C., pH6.8) turned out to be 6.022. The compound further returned an inhibition at 34 µg/mL (pH 6.8, final concentration 34 μg/mL, 37° C., pH6.8) of 39.6%.

In general, inhibition refers to the change of the read-out against control, counted positive when it falls. A high value points to a strong effect.
